{
  "source": "patent US6358885B1",
  "about": "“Substituted phenylheterocyclic herbicides” (Mississippi State University, priority 1992, dated 2002)",
  "key": {"barley": {"tested_on": "barley", "experiment": "Test B preemergence/postemergence greenhouse plant response rating 0 to 10", "format": "in vivo, Hordeum vulgare", "details": "0 to 10 scale", "outline": "(§1)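 Planted seeds are treated preemergence with compound dissolved in a non-phytotoxic solvent, while postemergence applications go onto plants of two to eighteen cm. Plants stay in the greenhouse twelve to sixteen days and are then rated visually relative to controls.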"}, "bedstraw": {"tested_on": "bedstraw", "experiment": "Test B preemergence/postemergence greenhouse plant response rating 0 to 10", "format": "in vivo, Galium aparine", "details": "POSTEMERGENCE, 0 to 10 scale", "outline": "as §1"}, "blackgrass [1]": {"tested_on": "blackgrass", "experiment": "Test B preemergence/postemergence greenhouse plant response rating 0 to 10", "format": "in vivo, Alopecurus myosuroides", "details": "0 to 10 scale", "outline": "as §1"}, "cheatgrass": {"tested_on": "cheatgrass", "experiment": "Test B preemergence/postemergence greenhouse plant response rating 0 to 10", "format": "in vivo, Bromus secalinus", "details": "0 to 10 scale", "outline": "as §1"}, "cocklebur": {"tested_on": "cocklebur", "experiment": "Test B preemergence/postemergence greenhouse plant response rating 0 to 10", "format": "in vivo, Xanthium pensylvanicum", "details": "0 to 10 scale", "outline": "as §1"}, "cotton": {"tested_on": "cotton", "experiment": "Test B preemergence/postemergence greenhouse plant response rating 0 to 10", "format": "in vivo, Gossypium hirsutum", "details": "0 to 10 scale", "outline": "as §1"}, "rice": {"tested_on": "rice", "experiment": "Test B preemergence/postemergence greenhouse plant response rating 0 to 10", "format": "in vivo, Oryza sativa", "details": "0 to 10 scale", "outline": "as §1"}, "wild buckwheat": {"tested_on": "wild buckwheat", "experiment": "Test B preemergence/postemergence greenhouse plant response rating 0 to 10", "format": "in vivo, Polygonum convolvulus", "details": "POSTEMERGENCE, 0 to 10 scale", "outline": "as §1"}, "blackgrass [2]": {"tested_on": "blackgrass", "experiment": "Test C preemergence/postemergence greenhouse plant response rating 0 to 100", "format": "in vivo, Alopecurus myosuroides", "details": "POSTEMERGENCE", "outline": "(§2)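 Compounds in non-phytotoxic solvent went onto sandy loam before emergence (seeded one day earlier) or onto plants at the one-to-four leaf stage. Duck salad was treated via flood water (~2.5 cm, maintained) over silt loam.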"}, "corn": {"tested_on": "corn", "experiment": "Test C preemergence/postemergence greenhouse plant response rating 0 to 100", "format": "in vivo, Zea mays", "details": "POSTEMERGENCE", "outline": "as §2"}, "giant foxtail": {"tested_on": "giant foxtail", "experiment": "Test C preemergence/postemergence greenhouse plant response rating 0 to 100", "format": "in vivo, Setaria faberii", "details": "POSTEMERGENCE", "outline": "as §2"}, "lambsquarters": {"tested_on": "lambsquarters", "experiment": "Test C preemergence/postemergence greenhouse plant response rating 0 to 100", "format": "in vivo, Chenopodium album", "details": "POSTEMERGENCE", "outline": "as §2"}, "rape": {"tested_on": "rape", "experiment": "Test C preemergence/postemergence greenhouse plant response rating 0 to 100", "format": "in vivo, Brassica napus", "details": "POSTEMERGENCE", "outline": "as §2"}, "ryegrass": {"tested_on": "ryegrass", "experiment": "Test C preemergence/postemergence greenhouse plant response rating 0 to 100", "format": "in vivo, Lolium multiflorum", "details": "POSTEMERGENCE", "outline": "as §2"}, "sugar beet": {"tested_on": "sugar beet", "experiment": "Test C preemergence/postemergence greenhouse plant response rating 0 to 100", "format": "in vivo, Beta vulgaris", "details": "POSTEMERGENCE", "outline": "as §2"}, "wheat": {"tested_on": "wheat", "experiment": "Test C preemergence/postemergence greenhouse plant response rating 0 to 100", "format": "in vivo, Triticum aestivum", "details": "POSTEMERGENCE", "outline": "as §2"}, "duck salad": {"tested_on": "duck salad", "experiment": "Test C flood test plant response rating 0 to 100", "format": "in vivo, Heteranthera limosa", "outline": "as §2"}, "barnyardgrass": {"tested_on": "barnyardgrass", "experiment": "Test C flood test plant response rating 0 to 100", "format": "in vivo, Echinochloa crus-galli", "outline": "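Compounds in non-phytotoxic solvent applied preemergence to sandy loam one day after planting, postemergence at the 1–4 leaf stage, or to ~2.5 cm floodwater over silt loam.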"}, "[3]": {"details": "POSTEMERGENCE section, flood test, Rate 1 g/ha"}, "[4]": {"details": "Rate 16 g/ha, under POSTEMERGENCE head (flood test species)"}, "[5]": {"details": "flood test species listed under POSTEMERGENCE, 62 g/ha, 0 to 100 scale"}},
  "data": [
    {"smiles": "C=CCN1C(=O)COc2cc(F)c(-c3nn4c(c3Cl)CCCC4)cc21", "note": "[Compound 33]", "values": [
      {"measurement": "Plant response rating, Barley", "setting": "barley; POSTEMERGENCE, Rate 10 g/ha", "result": 4},
      {"measurement": "Plant response rating, Barley", "setting": "barley; POSTEMERGENCE, Rate 50 g/ha", "result": 4},
      {"measurement": "Plant response rating, Barley", "setting": "barley; PREEMERGENCE, Rate 10 g/ha", "result": 0},
      {"measurement": "Plant response rating, Barley", "setting": "barley; PREEMERGENCE, Rate 50 g/ha", "result": 1},
      {"measurement": "Plant response rating, Bedstraw", "setting": "bedstraw; Rate 10 g/ha", "result": 8},
      {"measurement": "Plant response rating, Bedstraw", "setting": "bedstraw; Rate 50 g/ha", "result": 9},
      {"measurement": "Plant response rating, Blackgrass", "setting": "blackgrass [1]; POSTEMERGENCE, Rate 10 g/ha", "result": 4},
      {"measurement": "Plant response rating, Blackgrass", "setting": "blackgrass [1]; POSTEMERGENCE, Rate 50 g/ha", "result": 5},
      {"measurement": "Plant response rating, Blackgrass", "setting": "blackgrass [1]; PREEMERGENCE, Rate 10 g/ha", "result": 3},
      {"measurement": "Plant response rating, Blackgrass", "setting": "blackgrass [1]; PREEMERGENCE, Rate 50 g/ha", "result": 5},
      {"measurement": "Plant response rating, Cheatgrass", "setting": "cheatgrass; POSTEMERGENCE, Rate 10 g/ha", "result": 4},
      {"measurement": "Plant response rating, Cheatgrass", "setting": "cheatgrass; POSTEMERGENCE, Rate 50 g/ha", "result": 4},
      {"measurement": "Plant response rating, Cheatgrass", "setting": "cheatgrass; PREEMERGENCE, Rate 10 g/ha", "result": 3},
      {"measurement": "Plant response rating, Cheatgrass", "setting": "cheatgrass; PREEMERGENCE, Rate 50 g/ha", "result": 6},
      {"measurement": "Plant response rating, Cocklebur", "setting": "cocklebur; POSTEMERGENCE, Rate 10 g/ha", "result": 10},
      {"measurement": "Plant response rating, Cocklebur", "setting": "cocklebur; POSTEMERGENCE, Rate 50 g/ha", "result": 10},
      {"measurement": "Plant response rating, Cocklebur", "setting": "cocklebur; PREEMERGENCE, Rate 10 g/ha", "result": 0},
      {"measurement": "Plant response rating, Cocklebur", "setting": "cocklebur; PREEMERGENCE, Rate 50 g/ha", "result": 5},
      {"measurement": "Plant response rating, Cotton", "setting": "cotton; POSTEMERGENCE, Rate 10 g/ha", "result": 10},
      {"measurement": "Plant response rating, Cotton", "setting": "cotton; POSTEMERGENCE, Rate 50 g/ha", "result": 10},
      {"measurement": "Plant response rating, Cotton", "setting": "cotton; PREEMERGENCE, Rate 10 g/ha", "result": 0},
      {"measurement": "Plant response rating, Cotton", "setting": "cotton; PREEMERGENCE, Rate 50 g/ha", "result": 0},
      {"measurement": "Plant response rating, Rice", "setting": "rice; POSTEMERGENCE, Rate 10 g/ha", "result": 6},
      {"measurement": "Plant response rating, Rice", "setting": "rice; POSTEMERGENCE, Rate 50 g/ha", "result": 7},
      {"measurement": "Plant response rating, Rice", "setting": "rice; PREEMERGENCE, Rate 50 g/ha", "result": 3},
      {"measurement": "Plant response rating, Wild buckwheat", "setting": "wild buckwheat; Rate 10 g/ha", "result": 10},
      {"measurement": "Plant response rating, Wild buckwheat", "setting": "wild buckwheat; Rate 50 g/ha", "result": 10},
      {"measurement": "Plant response rating, Blackgrass", "setting": "blackgrass [2]; 62 g/ha, 0 to 100 scale", "result": 60},
      {"measurement": "Plant response rating (0 to 100), Blackgrass", "setting": "blackgrass [2]; Rate 1 g/ha", "result": 30},
      {"measurement": "Plant response rating (0 to 100), Blackgrass", "setting": "blackgrass [2]; Rate 4 g/ha", "result": 50},
      {"measurement": "Plant response rating (0 to 100), Blackgrass", "setting": "blackgrass [2]; Rate 16 g/ha", "result": 50},
      {"measurement": "Plant response rating, Corn", "setting": "corn; 62 g/ha, 0 to 100 scale", "result": 40},
      {"measurement": "Plant response rating (0 to 100), Corn", "setting": "corn; Rate 1 g/ha", "result": 20},
      {"measurement": "Plant response rating (0 to 100), Corn", "setting": "corn; Rate 4 g/ha", "result": 30},
      {"measurement": "Plant response rating (0 to 100), Corn", "setting": "corn; Rate 16 g/ha", "result": 30},
      {"measurement": "Plant response rating, Giant foxtail", "setting": "giant foxtail; 62 g/ha, 0 to 100 scale", "result": 70},
      {"measurement": "Plant response rating (0 to 100), Giant foxtail", "setting": "giant foxtail; Rate 1 g/ha", "result": 0},
      {"measurement": "Plant response rating (0 to 100), Giant foxtail", "setting": "giant foxtail; Rate 4 g/ha", "result": 0},
      {"measurement": "Plant response rating (0 to 100), Giant foxtail", "setting": "giant foxtail; Rate 16 g/ha", "result": 20},
      {"measurement": "Plant response rating Lambsquarters", "setting": "lambsquarters; 62 g/ha, 0 to 100 scale", "result": 100},
      {"measurement": "Plant response rating (0 to 100), Lambsquarters", "setting": "lambsquarters; Rate 1 g/ha", "result": 50},
      {"measurement": "Plant response rating (0 to 100), Lambsquarters", "setting": "lambsquarters; Rate 4 g/ha", "result": 70},
      {"measurement": "Plant response rating (0 to 100), Lambsquarters", "setting": "lambsquarters; Rate 16 g/ha", "result": 80},
      {"measurement": "Plant response rating, Rape", "setting": "rape; 62 g/ha, 0 to 100 scale", "result": 100},
      {"measurement": "Plant response rating (0 to 100), Rape", "setting": "rape; Rate 1 g/ha", "result": 100},
      {"measurement": "Plant response rating (0 to 100), Rape", "setting": "rape; Rate 4 g/ha", "result": 100},
      {"measurement": "Plant response rating (0 to 100), Rape", "setting": "rape; Rate 16 g/ha", "result": 100},
      {"measurement": "Plant response rating Ryegrass", "setting": "ryegrass; 62 g/ha, 0 to 100 scale", "result": 60},
      {"measurement": "Plant response rating (0 to 100), Ryegrass", "setting": "ryegrass; Rate 1 g/ha", "result": 30},
      {"measurement": "Plant response rating (0 to 100), Ryegrass", "setting": "ryegrass; Rate 4 g/ha", "result": 40},
      {"measurement": "Plant response rating (0 to 100), Ryegrass", "setting": "ryegrass; Rate 16 g/ha", "result": 50},
      {"measurement": "Plant response rating, Sugar beet", "setting": "sugar beet; 62 g/ha, 0 to 100 scale", "result": 100},
      {"measurement": "Plant response rating (0 to 100), Sugar beet", "setting": "sugar beet; Rate 1 g/ha", "result": 100},
      {"measurement": "Plant response rating (0 to 100), Sugar beet", "setting": "sugar beet; Rate 4 g/ha", "result": 100},
      {"measurement": "Plant response rating (0 to 100), Sugar beet", "setting": "sugar beet; Rate 16 g/ha", "result": 100},
      {"measurement": "Plant response rating, Wheat", "setting": "wheat; 62 g/ha, 0 to 100 scale", "result": 60},
      {"measurement": "Plant response rating (0 to 100), Wheat", "setting": "wheat; Rate 1 g/ha", "result": 30},
      {"measurement": "Plant response rating (0 to 100), Wheat", "setting": "wheat; Rate 4 g/ha", "result": 40},
      {"measurement": "Plant response rating (0 to 100), Wheat", "setting": "wheat; Rate 16 g/ha", "result": 50},
      {"measurement": "Plant response rating (0 to 100), Duck salad", "setting": "duck salad; [3]", "result": 0},
      {"measurement": "Plant response rating (0 to 100), Duck salad", "setting": "duck salad; POSTEMERGENCE section, flood test, Rate 4 g/ha", "result": 0},
      {"measurement": "Plant response rating (0 to 100), Duck salad", "setting": "duck salad; [4]", "result": 65},
      {"measurement": "Plant response rating Duck salad", "setting": "duck salad; [5]", "result": 80},
      {"measurement": "Plant response rating (0 to 100), Barnyardgrass", "setting": "barnyardgrass; [3]", "result": 35},
      {"measurement": "Plant response rating (0 to 100), Barnyardgrass", "setting": "barnyardgrass; Rate 4 g/ha, under POSTEMERGENCE head (flood test species)", "result": 65},
      {"measurement": "Plant response rating (0 to 100), Barnyardgrass", "setting": "barnyardgrass; [4]", "result": 95},
      {"measurement": "Plant response rating, Barnyardgrass", "setting": "barnyardgrass; [5]", "result": 100}
    ]}
  ]
}
